Laboratory results: US20230097992A1, “BIVALENT EGF FUSION TOXINS” (The Regents of the University of Colorado, a body corporate, priority 2020, published 2023)

Experiments:
[1] = tested on: human EGFR-positive HNSCC cell line Vu1365; assay: CellTiter-Glo Luminescent Cell Viability Assay, Vu1365; format: cell-based; settings: read-out: IC50 to HNSCC cell lines (Erlotinib)
Procedure: (§1) FIG. 9 presents the data from in vitro efficacy analysis of the human EGF fusion toxins against human EGFR-positive HNSCC cell lines using CellTiter-Glo® Luminescent Cell Viability Assay (Promega) Y-axis: inhibition rate of the cell viability by determining the number of viable cells based on the quantification of the ATP present. X-axis: plated fusion toxin concentration. Cycloheximide (1.25 mg/mL) was used as a positive control. The negative control contained cells without fusion toxin. Data were from three individual experiments for each HNSCC cell line. Error bars indicate SD.
(§2) Y-axis: inhibition rate of the cell viability by determining the number of viable cells based on the quantification of the ATP present. […] Cycloheximide (1.25 mg/mL) was used as a positive control. […]
(§3) In vitro efficacy analysis of the human EGF fusion toxins (mEGF-IT and bEGF-IT) to the human HNSCC tumor cell lines was performed using CellTiter-Glo® Luminescent Cell Viability Assay (Promega Corporation, Madison, Wis.) as described previously (Zheng et al. (2017), Mol. Oncol. 11, 584-594, which is hereby incorporated by reference in its entirety). This cell viability assay measures the luminescence produced because of ATP production from metabolically active cells. […] The luminescence signals were recorded using BioTek Synergy LX Multi-Mode Reader.
(§4) IC50 was determined using nonlinear regression (curve fit) of Prism. […]

[2] = tested on: human EGFR-positive HNSCC cell line TU167; assay: CellTiter-Glo Luminescent Cell Viability Assay, TU167; format: cell-based; settings: read-out: IC50 to HNSCC cell lines (Erlotinib)
Procedure: as §1, §2, §3, §4

[3] = tested on: human EGFR-positive HNSCC cell line HN6; assay: CellTiter-Glo Luminescent Cell Viability Assay, HN6; format: cell-based; settings: HN-6, read-out: IC50 to HNSCC cell lines (Erlotinib)
Procedure: as §1, §2, §3, §4

[4] = tested on: 14 EGFR+ HNSCC cells lines; assay: Flow cytometry binding, all 14 EGFR+ HNSCC cell lines together; set-up: species or system human; settings: mean over the 14 EGFR+ HNSCC cell lines
NSG mice = assay: In vivo off-target toxicity in NSG mice
Excerpt: FIGS. 12A-C presents representative images of necropsy results for NSG mice treated with mono-EGF-IT or bi-EGF-IT without tumor cell injection. Mice were euthanized on day 13 after the first injection of the fusion toxins. The images show representative gross changes observed in the ear (FIG. 12A), liver (FIG. 12C) and gastrointestinal tract of a representative NSG mouse treated with mono-EGF-IT compared to a representative NSG mouse treated with bi-EGF-IT.
Mono-EGF-IT (mEGF-IT), bEGF-IT, or DT390 was intraperitoneally injected (IP) starting at day 4 at 50 μg/kg, once daily for 10 consecutive days. […] The injected animals were observed daily for signs and symptoms of illness and scored at least twice weekly based on the parameters as previously reported (Peraino et al. (2013), J. Immunol. Methods 398-399, 33-43, which is hereby incorporated by reference in its entirety; Wang et al., 2015). The animals were humanely euthanized when the score exceeded the limit or the animal lost more than 15% of its pre-injection body weight. In addition, to assess whether the fusion toxins are toxic to the animals, NSG mice injected with the fusion toxins only were also included as control.
The main side effects of targeting EGFR are caused by off-target effects, because EGFR is expressed in many healthy tissues, include skin, liver, and gastrointestinal tract (Widakowich et al., (2007), Oncologist, 12, 1443-1455). […] To further assess these toxic effects, another in vivo toxicity study in non-tumor-bearing mice was performed. NSG mice were treated with mono-EGF-IT or bi-EGF-IT, without tumor cell injection.

[5] = tested on: residual Cal27 tumor cells; assay: CellTiter-Glo Luminescent Cell Viability Assay, residual Cal27 tumor cells; format: cell-based, human; settings: residual Cal27 cells from flank xenografts at day 14 after bEGF-IT 50 μg/kg once daily for 10 days
Excerpt: FIGS. 13A-C present in vitro binding affinity and efficacy analysis of the bEGF-IT to the residual Cal27 tumor cells. FIG. 13A: Flow cytometry binding affinity analysis of the bEGF-IT to the residual Cal27 tumor cells. The data were representative of three individual experiments. FIG. 13B: KD determination of the bEGF-IT to the residual Cal27 tumor cells using flow cytometry and nonlinear least squares fit. FIG. 13C: In vitro efficacy analysis of the bEGF-IT to the residual Cal27 tumor cells using CellTiter-Glo® Luminescent Cell Viability Assay. bEGF-IT group (green line); Anti-murine PD-1 immunotoxin group as negative control (blue line). Data were from three individual experiments. Error bars indicate SD.
The tumor was removed from the sacrificed flank-xenograft solid tumor-bearing mice and washed with PBS twice in sterile manner. Then the tumor sample was cut into small pieces (approximately 1 mm^3) on the lid of a petri dish and washed with PBS. The tissue pellet was resuspended in DMEM tissue culture medium and cultured in the T25 flask. After several days of culture, the tissue residues were removed and the residual tumor cells were cultured as parent Cal27 tumor cell line.
It was hypothesized that the residual tumor cells were still sensitive to the human EGF fusion toxin treatment. […]

[6] = non-tumor-bearing NSG mice, 13 days after the first injection

| Compound | IC50 [1] [nM] | IC50 [2] [nM] | IC50 [3] [nM] | Kd [4] [nM] | adverse effects observed in treated mice (NSG mice; mice of the efficacy studies) | general condition and skin (NSG mice; non-tumor-bearing NSG mice) | necropsy, gastrointestinal tract (NSG mice; [6]) | necropsy, liver (NSG mice; [6]) | IC50 [5] [nM] |
| --- | --- | --- | --- | --- | --- | --- | --- | --- | --- |
| C#Cc1cccc(Nc2ncnc3cc(OCCOC)c(OCCOC)cc23)c1 [Erlotinib] | 1540 | 410 | 940 |  |  |  |  |  |  |
| Bi-EGF IT: DT390 joined by G4S to two human EGF domains linked by (G4S)3, C-terminal 6×His tag; SEQ ID NO: 10 |  |  |  | 5.05 | these adverse effects were not observed | but not bi-EGF-IT, were again generally unhealthy and lethargic with skin rashes | normal appearance of the gastrointestinal tract | no significant abnormal findings | 0.0562 |
